Columns and labels:
[1] = system: ACCase of cell line 2167-9/2160-154 S-1; assay: Herbicide inhibition of ACCase, line S-1; assay type: biochemical, maize; details: cell line S-1
Method: (§1) Maize chloroplasts, isolated as described above, were suspended in buffer C (0.1 M Tricine-KOH, pH 8.0; 0.3 M glycerol, and 1 mM DTT) and homogenized in a glass tissue homogenizer. The disrupted chloroplast fraction was centrifuged at 16,000 g for 15 minutes. The supernatant was desalted on a Sephadex G-25 column (1.5×5 cm equilibrated with 0.1 M Tricine-KOH, pH 8.0; and 0.3 M glycerol) and assayed directly. ACCase activity (B. J. Nikolau et al., Arch. Biochem. Biophys., 211, 605-612 (1981)) was assayed at 30° C. in a 0.2 ml volume which contained 1 mM ATP, 3 mM acetyl coenzyme A, 2.5 mM MgCl2, 50 mM KCl, 0.5 mM DTT, and 15 mM [^14C]NaHCO3 (0.17 mCi/mmol). Reactions were initiated by addition of acetyl coenzyme A and stopped by addition of 25 μl of 12 N HCl. Product formation was determined by the radioactivity found in an acid stable fraction by liquid scintillation spectrometry. Enzyme activity was linear for 15 minutes.
Acetyl Coenzyme A Carboxylase (ACCase) was extracted from cell lines S-1, H-1 and H-2 and assayed as described in detail for maize cell line S-2, above.

[2] = molecular target: ACCase of S-2 tissue (Zea mays, UniProt Q41743); assay: ACCase activity, herbicide inhibition, S-2 tissue; assay type: biochemical, maize; details: on concentration basis
Method: as §1
Assays were conducted to determine if ACCase extracted from cell line S-2 was altered with respect to herbicide activity. ACCase activity of control tissue was 50% inhibited either by 1.5 μM sethoxydim, or by 0.25 μM haloxyfop. ACCase activity of S-2 tissue was inhibited 50% either by 70 μM sethoxydim, or by 1.8 μM haloxyfop, indicating at least 40-fold and 7-fold decreases in herbicide sensitivity on concentration basis, respectively.

[3] = system: control (2167-9/2160-154 unselected) plants; assay: Whole plant sethoxydim spray, greenhouse, control regenerated plants; assay type: in vivo, maize; details: greenhouse-grown regenerated plants, sprayed
Source text: (§2) Groups of eight control (2167-9/2160-154 unselected) and eight S-2 plants were sprayed with either 0.0, 0.01, 0.05, 0.11, 0.22 or 0.44 kg/ha sethoxydim to determine whole plant sethoxydim-tolerance of greenhouse-grown plants. Control plants were killed by 0.05 kg/ha or more sethoxydim.

[4] = system: progeny of 2167-9/2160-154 control plants; assay: Sethoxydim treatment of progeny seedlings, greenhouse; assay type: in vivo, maize; details: seedlings treated at 3-4 leaf stage, rated two weeks after treatment
Method: Seeds obtained by the crossing procedure described above were viable and germinated normally. Seeds from thirty S-2 selfed plants and fifteen 2167-9/2160-154 control plants were planted in 25×50 cm trays of soil (28 seeds from each plant in one tray) and grown in the greenhouse. Seedlings at the 3-4 leaf stage were treated with 0.1, 0.44, and 1.1 kg/ha sethoxydim and evaluated for visual herbicide damage and shoot height. Based on visual rating of herbicide damage two weeks after treatment, selfed progeny of S-2 plants segregated approximately 1:2:1 for healthy, uninjured plants: to plants showing partial injury: to dead plants, respectively, at 0.44 and 1.1 kg/ha sethoxydim treatments. All control progeny of 2167-9/2160-154 control plants were killed by 0.1 kg/ha and greater levels of sethoxydim. […] Similar tests were conducted on progeny of S-2 plants crossed to the other inbreds. In all cases, these test cross progeny treated with 0.44 kg/ha sethoxydim segregated 1:1 for growing shoots versus dead shoots whether S-2 plants were used as male or female parents. […] In all cases, control plants crossed to the other inbreds were killed and therefore sethoxydim-sensitive.

[5] = system: plants regenerated from the S-2 cell line; assay: Whole plant sethoxydim spray, greenhouse, S-2 regenerated plants; assay type: in vivo, maize
Source text: as §2

Row | SMILES | Fold increase in herbicide concentration that inhibits ACCase activity by 50% vs unselected parent cell line [1] | Fold increase in herbicide concentration that inhibits ACCase activity by 50% vs unselected parent cell line ([1]; listed as haloxyfop) | Fold decrease in herbicide sensitivity of ACCase, S-2 versus control [2] | Rate that killed control plants [3] | Fold increase in herbicide concentration that inhibits ACCase activity by 50% vs unselected parent cell line ([1]; listed as sethoxydim) | Rate that killed all control progeny [4] | Survival of S-2 plants ([5]; 0.44 kg/ha sethoxydim) | Shoot height of regenerated S-2 plants ([5]; 14 days after treatment with 0.44 kg/ha sethoxydim) | Fold more tolerance of S-2 plants than control ([5]; whole plant spray)
1 | CC(Oc1ccc(Oc2ncc(C(F)(F)F)cc2Cl)cc1)C(=O)O (stereo not shown) [Haloxyfop, 2-[4-[[3-chloro-5-(trifluoromethyl)-2-pyridinyl]oxy]phenoxy]-propanoic acid] | 3 fold | more tolerant | ≥ 7 fold | – | – | – | – | – | –
2 | CCCC(=NOCC)C1=C(O)CC(CC(C)SCC)CC1=O (stereo not shown) [Sethoxydim, 2-[1-(ethoxyimino)-butyl]-5-[2-(ethylthio)propyl]-3-hydroxy-2-cyclohexen-1-one] | 4 fold | – | – | ≥ 0.05 kg/ha | more tolerant | ≥ 0.1 kg/ha | survived | only slightly reduced | at least 20 fold
